# Reference: patent US20050238642A1, “Modified bouganin proteins, cytotoxins and methods and uses thereof” (priority 2004, published 2005)
# Tested on: PBMCs (peripheral blood mononuclear cells) from naive donors
# Assay: Naive human T-cell proliferation assay (3H-thymidine incorporation, stimulation index)
# Type: cell-based
# Settings: compared with peptide 44
# Method: Accordingly, in the present studies, 89 synthetic 15-mer peptides (as listed in Table 1) were used in T-cell proliferation assays with PBMCs (peripheral blood mononuclear cells) from naive donors (i.e. no known sensitization to bouganin). 20 donor PBMC samples were selected to achieve an optimal coverage of MHC class II allotypes. PBMCs were stimulated with individual peptides in triplicate cultures for 7 days before proliferation was assessed by ^3H-thymidine incorporation. All peptides were diluted at two different concentrations: 1 μM and 5 μM. The stimulation indices (SI) were calculated as the amount of ^3H incorporated into the cells, divided by the amount of ^3H incorporated in mock-stimulated controls.
# The peptides were used in T-cell proliferation assays with PBMCs (peripheral blood mononuclear cells) from naive donors (i.e. no known sensitization to bouganin). 20 donor PBMC were selected to get an optimal coverage of MHC class II allotypes. The allotypic coverage is in excess of 85%.
# PBMCs were stimulated with individual peptides in triplicate cultures for 7 days before proliferation was assessed by ^3H-thymidine (^3H-Thy) incorporation. All peptides were tested at two different concentrations (1 μM and 5 μM). Stimulation indices (S.I.) were calculated as the amount of ^3H incorporated, divided by the amount of ^3H incorporated in mock-stimulated control cells.
# Buffy coats from human blood stored for less than 12 hours were obtained from the National Blood Service (Addenbrooks Hospital, Cambridge, UK). Ficoll-paque was obtained from Amersham Pharmacia Biotech (Amersham, UK). Serum free AIM V media for the culture of primary human lymphocytes and containing L-glutamine, 50 μg/ml streptomycin, 10 μg/ml gentomycin and 0.1% human serum albumin was from Gibco-BRL (Paisley, UK). Synthetic peptides were obtained from Eurosequence (Groningen, The Netherlands) and Babraham Technix (Cambridge, UK).
# Erythrocytes and leukocytes were separated from plasma and platelets by gentle centrifugation of buffy coats. The top phase (containing plasma and platelets) was removed and discarded. Erythrocytes and leukocytes were diluted 1:1 in phosphate buffered saline (PBS) before layering onto 15 ml ficoll-paque (Amersham Pharmacia, Amersham UK). Centrifugation was done according to the manufacturers recommended conditions and PBMCs were harvested from the serum+PBS/ficoll paque interface. PBMCs were mixed with PBS (1:1) and collected by centrifugation. The supernatant was removed and discarded and the PBMC pellet resuspended in 50ml PBS. Cells were again pelleted by centrifugation and the PBS supernatant discarded. Cells were resuspended using 50 ml AIM V media and at this point counted and viability assessed using trypan blue dye exclusion. Cells were again collected by centrifugation and the supernatant discarded. Cells were resuspended for cryogenic storage at a density of 3×10^7 per ml. The storage medium was 90% (v/v) heat inactivated AB human serum (Sigma, Poole, UK) and 10% (v/v) DMSO (Sigma, Poole, UK). Cells were transferred to a regulated freezing container (Sigma) and placed at −70° C. overnight. When required for use, cells were thawed rapidly in a water bath at 37° C. before transferring to 10ml pre-warmed AIM V medium.
# PBMC were stimulated with protein and peptide antigens in a 96 well flat bottom plate at a density of 2×10^5 PBMC per well. PBMC were incubated for 7 days at 37° C. before pulsing with ^3H-Thy (Amersham-Pharmacia, Amersham, UK). […] C-32=sequence […] from Flu haemagglutinin residues 307-319 (SEQ ID NO:127). C-49=sequence […] from Chlamydia HSP 60 (SEQ ID NO:128).
# Peptides were dissolved in DMSO to a final concentration of 10 mM, these stock solutions were then diluted 1/500 in AIM V media (final concentration 20 μM). Peptides were added to a flat bottom 96 well plate to give a final concentration of 1 and 5 μM in 100 μl. […]
row,Substance,T cell proliferation (in words)
1,"DLELGVYKLEFSIEA [compound 43, bouganin 15-mer peptide, first amino acid 127]",lower level T cell proliferation

# Same assay, conditions: compilation of 20 donors, 1 μM and 5 μM
row,Substance,presence of T cell epitope
1,"AKVDRKDLELGVYKL [peptide 41, bouganin 15-mer peptide, first amino acid 121]",T cell epitopes

# Same assay, conditions: donor 4, peptide at 5 μM
row,Substance,S.I. (stimulation index)
1,"AKVDRKDLELGVYKL [peptide 41, bouganin 15-mer peptide, first amino acid 121]",3.6

# Same assay, conditions: donor 5, peptide at 5 μM
row,Substance,S.I. (stimulation index)
1,"AKVDRKDLELGVYKL [peptide 41, bouganin 15-mer peptide, first amino acid 121]",4.9

# Same assay, conditions: donor 10, peptide at 5 μM
row,Substance,S.I. (stimulation index)
1,"AKVDRKDLELGVYKL [peptide 41, bouganin 15-mer peptide, first amino acid 121]",2.1

# Same assay, conditions: donor 11, peptide at 5 μM
row,Substance,S.I. (stimulation index)
1,"AKVDRKDLELGVYKL [peptide 41, bouganin 15-mer peptide, first amino acid 121]",2.0

# Same assay, conditions: of 20 donor PBMC samples
row,Substance,responsive donors
1,"AKVDRKDLELGVYKL [peptide 41, bouganin 15-mer peptide, first amino acid 121]",four

# Tested on: cell-free protein synthesis
# Assay: Cell-free protein synthesis assay (luciferase, coupled transcription/translation)
# Type: biochemical
# Parameters: key to Activity in luciferase assay: ++: same or higher than WT protein.; +: within 2-fold of WT activity.; +/−: within 3-fold of WT activity.; −−: less than one-third of WT activity
# Settings: multiple substitution variants, relative to wild-type protein
# Description: The term “biological activity” as used herein is the ability of the modified or non-modified bouganin protein to inhibit protein synthesis on ribosomes, which can be assessed in a number of ways. It should be noted that a modified bouganin protein will still have biological activity even if such activity is lower than that of the non-modified protein, however it would need to have some level of detectable activity. For example, the biological activity of the modified or non-modified bouganin protein can be assessed by identifying their N-glycosidase activity, and in particular with sufficient activity to provide significant inhibition of protein translation. One such suitable assay involves testing the activity of the variant bouganin proteins in comparison to non-modified bouganin in a cell-free protein synthesis assay. A coupled transcription/translation mix containing methionine, DNA encoding the reporter protein luciferase and serial dilutions of non-modified and modified bouganin protein are co-incubated. The levels of translated luciferase are readily detected using a luminescence counter following addition of a substrate reagent. The measured luminescence is inversely proportional to the bouganin N-glycosidase activity present in the reaction. It is usual to provide a negative control such as an in-active bouganin protein, for example containing a Y70A substitution.
# The biological activity of the proteins of the invention can equally be assessed in many ways. In one embodiment, modified bouganin molecules are identified with N-glycosidase activity, and in particular with sufficient activity to provide significant inhibition of protein translation. One such suitable assay involves testing the activity of the modified bouganin proteins in comparison to non-modified bouganin in a cell-free protein synthesis assay. A coupled transcription/translation mix containing methionine, DNA encoding the reporter protein luciferase and serial dilutions of non-modified and modified bouganin proteins are co-incubated. The levels of translated luciferase are readily detected using a luminescence counter following addition of a substrate reagent. The measured luminescence is inversely proportional to the bouganin N-glycosidase activity present in the reaction. It is usual to provide a negative control such as an in-active bouganin protein for example containing a Y70A substitution.
# The activity of the wild-type and modified (mutant) bouganin proteins was tested by measuring their ability to inhibit protein synthesis in a cell-free protein synthesis assay.
# A mixture of 10 μl TNT Coupled Transcription/Translation mix (Promega), 20 […] methionine, 120 ng pT7 luciferase DNA (Promega) and serial dilutions of WT and mutant bouganin protein in a final volume of 12.5 μl were incubated at 30° C. for one hour, after which the reaction was stopped by addition of 100 μl “SteadyGlow” luciferase assay reagent (Promega). The luciferase activity was measured using a Wallac luminescence counter. Active bouganin protein is detected as a decrease in measured luciferase activity. Each modified bouganin protein was tested in at least 5 concentrations, with each data point in duplicate. Positive and negative controls were included in each experiment.
# In each instance results are expressed relative to wild-type protein activity.
row,Substance,Activity in luciferase assay
1,"Bou156: modified bouganin with V123A, D127A, Y133N, I152A (SEQ ID No 13)",++
2,"Bou157: modified bouganin with V123A, D127A, Y133Q, I152A (SEQ ID No 14)",++

# Same assay, conditions: single substitution variants, relative to wild-type protein
row,Substance,Activity in luciferase assay
1,D127A: modified bouganin protein with substitution D127A,++
2,D127G: modified bouganin protein with substitution D127G,++
3,E129G: modified bouganin protein with substitution E129G,++
4,E129K: modified bouganin protein with substitution E129K,−−
5,E129Q: modified bouganin protein with substitution E129Q,+/− (within 3-fold of WT activity.)
6,E129R: modified bouganin protein with substitution E129R,−−
7,E151T I152E,−−
8,F155H: modified bouganin protein with substitution F155H,−−
9,F155P: modified bouganin protein with substitution F155P,−−
10,I152A: modified bouganin protein with substitution I152A,++
11,I152E: modified bouganin protein with substitution I152E,−−
12,I152Q: modified bouganin protein with substitution I152Q,++
13,I158P: modified bouganin protein with substitution I158P,−−
14,V123A: modified bouganin protein with substitution V123A,++
15,V123D: modified bouganin protein with substitution V123D,−−
16,V123E: modified bouganin protein with substitution V123E,−−
17,V123G: modified bouganin protein with substitution V123G,−−
18,V123H: modified bouganin protein with substitution V123H,−−
19,V123K: modified bouganin protein with substitution V123K,−−

row,Substance,Activity in luciferase assay
1,V123N: modified bouganin protein with substitution V123N,−−
2,V123P: modified bouganin protein with substitution V123P,−−
3,V123Q: modified bouganin protein with substitution V123Q,++
4,V123R: modified bouganin protein with substitution V123R,−−
5,V123S: modified bouganin protein with substitution V123S,−−
6,V123T: modified bouganin protein with substitution V123T,+/− (within 3-fold of WT activity.)
7,"Y70A: inactive bouganin with Y70A substitution, negative control (SEQ ID NO. 129) [reference compound]",−−
8,Y133A: modified bouganin protein with substitution Y133A,++
9,Y133D: modified bouganin protein with substitution Y133D,++
10,Y133E: modified bouganin protein with substitution Y133E,+/− (within 3-fold of WT activity.)
11,Y133G: modified bouganin protein with substitution Y133G,++
12,Y133H: modified bouganin protein with substitution Y133H,++
13,Y133K: modified bouganin protein with substitution Y133K,++
14,Y133N: modified bouganin protein with substitution Y133N,++
15,Y133P: modified bouganin protein with substitution Y133P,−−
16,Y133Q: modified bouganin protein with substitution Y133Q,++
17,Y133R: modified bouganin protein with substitution Y133R,++
18,Y133S: modified bouganin protein with substitution Y133S,++
19,Y133T: modified bouganin protein with substitution Y133T,++

# Same assay, conditions: when conjugated to the Fab fragment (FIG. 12)
row,Substance,potency in cell-free assay
1,"Bou156: modified bouganin with V123A, D127A, Y133N, I152A (SEQ ID No 13)",retained its potency
